What was measured:
[1] = tested on: PK-1 cells; test: Cellular aging: morphology and SA-β-Gal staining; format: cell-based; conditions: 2 μM
Description: In this example, an aging of cells by BLU9931 was examined. […] This morphological change was considered to be due to cellular aging. The present inventors measured the activity of senescence-associated β-galactosidase (SA-β-Gal), a marker of cellular aging.
After staining, nuclear staining was performed with DAPI.

[2] = tested on: PK-1 cells and PK-45P cells; test: Cell cycle by FACS; format: cell-based; conditions: after addition of BLU9931, FIG. 3C
[3] = tested on: ERK, AKT, and STAT3 downstream of FGF19/FGFR4 signaling; test: Immunoblotting of ERK, AKT, STAT3 in PK-45P cells; format: cell-based; conditions: FIG. 4
[4] = tested on: phosphorylation of H2A.X; test: DNA damage by phosphorylation of H2A.X (immunofluorescence); format: cell-based; conditions: incubation time increased from 3 days to 7 days; FIG. 7
Description: BLU9931-treated cells were incubated with anti-γHA2.X mouse monoclonal antibody at 4° C. overnight. Cells were treated with Alexa-Fluor-conjugated secondary antibodies and nuclear staining was performed with DAPI.

[5] = tested on: PK-45P cells; test: Cell proliferation by ATP assay, FGFR4-low PK-45P cells; format: cell-based; conditions: PK-45P cells (low FGFR4); 250 nM to 2 μM; 72 hours; FIG. 3A
Description: (§1) After 72 hours of incubation, the effect on cell proliferation was examined by ATP assay.

[6] = tested on: FGFR1-3; conditions: general statement in the description, no test shown; cited from earlier work
[7] = tested on: PK-1 cells; test: Cell proliferation by ATP assay, FGFR4-high PK-1 cells; format: cell-based; conditions: PK-1 cells (high FGFR4); 250 nM, 500 nM, 1 μM or 2 μM; 72 hours; volume-dependent manner; FIG. 3A
Description: as §1

[8] = tested on: PK-1 cells; test: Cell invasion, Corning Matrigel Invasion Chamber; format: cell-based; conditions: 2 μM, 16 hours, FIG. 5
Description: 1×10^5 cells/500 μL of PK-1 cells were seeded on top of the insert.

[9] = tested on: PK-1 cells and PK-45P cells; test: Cytotoxicity by FACS using annexin V and PI; format: cell-based; conditions: 2 μM, FIG. 3B
[10] = tested on: ERK, AKT, and STAT3 downstream of FGF19/FGFR4 signaling; test: Immunoblotting of ERK, AKT, STAT3 in PK-1 cells; format: cell-based; conditions: 2 μM, FIG. 4

C=CC(=O)Nc1cccc(C)c1Nc1ncc2cc(-c3c(Cl)c(OC)cc(OC)c3Cl)ccc2n1 [BLU9931]
number of SA-β-Gal positive cells compared to the control cells ([1]; FIG. 6): increased | cell morphology compared to the control cells ([1]; PK-1 cells, 1 week, FIG. 6A): larger and flattened | number of cells in S phase ([2]; 20.7% without): 13.5% | number of cells in G0/G1 phase ([2]; 60.7% without): 70.1% | expression of AKT [3]: not decreased | expression of ERK [3]: not decreased | expression of STAT3 [3]: not decreased | DNA damage of the cells [4]: progressed | cell proliferation [5]: no effect | inhibition of FGFR1-3 [6]: does not inhibit | cell proliferation [7]: suppressed | cell invasion [8]: inhibited | apoptosis, necrosis, or cell damage observed in cells [9]: ≤ 2% | cytotoxicity [9]: no significant effects | expression of AKT [10]: decreased | expression of ERK [10]: decreased | expression of STAT3 [10]: decreased
